Laboratory results as given in US9220680B2, “Compositions and methods for localized drug delivery through mammary papillae” (South Dakota State University, priority 2012, dated 2015).

Key:
MDA-MB-231 cells [1] = assay: Western blotting of apoptotic proteins; assay type: cell-based, human; settings: 12, 24 or 48 hours
Protocol: (§1) Western Blotting: Cells were treated with various concentrations of α-santalol and incubated for 12, 24 or 48 hours. Cell lysates were made and subjected to western blot analysis to determine the expression of different proteins.

MCF-7 cells [2] = assay: Western blotting of apoptotic proteins; assay type: cell-based, human; settings: 12, 24 or 48 hours
Protocol: as §1

MDA-MB-231 cells [3] = assay: MTT assay (cell viability); assay type: cell-based, human; settings: different concentrations and time points
Protocol: (§2) MTT Assay: After treatment with different concentrations of α-santalol for different time points, cells were incubated with MTT and subsequently solubilized in DMSO. Absorbance was measured at 570 nm.

MCF-7 cells [4] = assay: MTT assay (cell viability); assay type: cell-based, human; settings: different concentrations and time points
Protocol: as §2

MDA-MB-231 cells [5] = assay: Cell cycle analysis, propidium iodide flow cytometry; assay type: cell-based, human; settings: 25 μM-75 μM, 12 hours
Protocol: (§3) Cell Cycle Analysis: After 12 hours of treatment with alpha-santalol, cells were fixed with 70% ethanol in PBS, treated with RNaseA, followed by staining with propidium iodide. Cells were analyzed by flow cytometry to determine cell-cycle distribution.

MCF-7 cells [6] = assay: as above; assay type: cell-based, human; settings: 25 μM-75 μM, 12 hours
Protocol: as §3

MDA-MB-231 cells [7] = assay: BrdU cell proliferation ELISA; assay type: cell-based, human; settings: 24 and 48 hours
Protocol: (§4) BrdU Cell Proliferation ELISA: Used to quantitate cell proliferation based on the measurement of Brdu incorporation during DNA synthesis in proliferating cells. At the end of 24 and 48 hours of treatment, cells were labeled with BrdU, fixed, denatured, and then incubated with Anti-BrdU POD. Absorbance was measured at 405 nm.

MCF-7 cells [8] = assay: BrdU cell proliferation ELISA; assay type: cell-based, human; settings: 24 and 48 hours
Protocol: as §4

MDA-MB-231 cells [9] = assay: TUNEL assay and flow cytometry (apoptosis); assay type: cell-based, human
Protocol: (§5) TUNEL Assay and Flow Cytometry: After incubation with alpha-santalol, cells were fixed with paraformaldehyde and ethanol. DNA strand breaks were labeled with BrdUTP. Brdu incorporation at DNA strand breaks was detected by Alexa Fluor 488 dye-labeled anti-BrdU antibodies. Samples were analyzed by Flow Cytometry.

MCF-7 cells [10] = assay: TUNEL assay and flow cytometry (apoptosis); assay type: cell-based, human
Protocol: as §5

[11] = Penetration of α-santalol into porcine mammary papilla without keratin plug removal (Experiment 25); assay type: in vitro ADME; settings: value (SEM), n=3
Protocol: Experiment procedure—Mammary papillae were setup in FSD and kept for saturation for 12 hours. Then 500 μl of drug formulation was added in the donor. Three 200 μl samples of donor were taken to determine GCMS area of donors. Now 200 μl samples were collected from the receptor on each time point. […] Results may be seen in FIG. 51 and Table 33.

[12] = Topical transmammary delivery of tamoxifen with and without α-santalol via porcine mammary papilla (Experiment 27); assay type: in vitro ADME; settings: given in combination with α-santalol
Protocol: From the receptor, 200 μl samples were taken at every time point. After 48 hours, tissues were taken, washed, cut in four sections, weighed and solubilized using the tissue solubilizer. After 24 hours, DPM counts were measured from each section of the tissue using scintillation cocktail.

[13] = 6 hours treatment 48 h disposition study

Row | SMILES | Cleavage of apoptotic proteins (western blot) (MDA-MB-231 cells [1]) | Cleavage of apoptotic proteins (western blot) (MCF-7 cells [2]) | Cell viability (MTT) (MDA-MB-231 cells [3]) | Cell viability (MTT) (MCF-7 cells [4]) | Cell cycle distribution (MDA-MB-231 cells [5]) | Cell cycle distribution (MCF-7 cells [6]) | Cell proliferation (BrdU ELISA) (MDA-MB-231 cells [7]) | Cell proliferation (BrdU ELISA) (MCF-7 cells [8]) | Apoptosis (TUNEL, flow cytometry) (MDA-MB-231 cells [9]) | Apoptosis (TUNEL, flow cytometry) (MCF-7 cells [10]) | Tissue retention ([11]; 5% v/v in 2:1 ethanol:PBS, 6 h treatment) | Tissue retention [11, 13] | Tissue retention (% of applied dose) [11, 13] | Tissue retention (% of applied dose) ([11]; 6 h treatment) | Tissue retention ([11]; 48 h treatment) | Tissue retention (% of applied dose) ([11]; 48 h treatment) | Applied dose retained by the tissue [12]
1 | C/C(=C/CCC1(C)C2CC3C(C2)C31C)CO (stereo not drawn) [alpha-santalol] | caspase-3 and PARP cleavage | PARP cleavage | inhibition of cell viability and proliferation in a time and dose-dependent manner | inhibition of cell viability and proliferation in a time and dose-dependent manner | arrested cell cycles at the G2/M phase | arrested cell cycles at the G2/M phase | inhibition of cell viability and proliferation in a time and dose-dependent manner | inhibition of cell viability and proliferation in a time and dose-dependent manner | significantly induced apoptosis | significantly induced apoptosis | 5.21 (0.41) μmole/g tissue | 5.34 (0.52) μmole/g tissue | 2.01 (0.12) % of applied dose | 2.20 (0.19) % of applied dose | 35.52 (3.69) μmole/g tissue | 15.30 (2.20) % of applied dose | –
2 | CC/C(=C(\c1ccccc1)c1ccc(OCCN(C)C)cc1)c1ccccc1 [tamoxifen] | – | – | – | – | – | – | – | – | – | – | – | – | – | – | – | – | approximately 40%
